Data on two compounds can be found in ChEMBL document CHEMBL6153123, “Discovery of Potent and Brain-Penetrant Bicyclic NLRP3 Inhibitors with Peripheral and Central In Vivo Activity” (J Med Chem, 2025).

Usually Papp A→B stands for the apparent permeability from the apical to the basolateral side of a cell layer. Higher therefore signals ready permeation. One may read the chromatographic logD as lipophilicity estimated from chromatographic retention. Read a high chromatographic logD as higher lipophilicity.

One series is described as follows: in vivo. To be noted: male, CD1, mouse, brain and plasma, po.
A short description of a further series: in vitro. Particulars: dog, MDCK-MDR1.
A further series can be described thus: physchem. Particulars: buffer, pH 7.4.

Turning to `Cc1cc(C(F)(F)F)cc(O)c1-c1nnc(N[C@@H]2CCCN(C)C2)n2nccc12`, the Kp uu in the series “in vivo” came out at 0.056. For the same compound, the Papp A→B in “in vitro” turned out to be 26 ×10⁻⁶ cm/s. Moreover, the chromatographic logD in “physchem” is 1.73.
As for `CN1C[C@H](Nc2nnc(-c3ccc(C(F)(F)F)cc3O)c3ccnn23)CC(F)(F)C1`, in “in vitro”, the apical-to-basolateral permeability (Papp A→B) stood at 13 ×10⁻⁶ cm/s. The same compound showed a chromatographic logD in “physchem” of 3.85.
